We go through two molecules from patent US7393872B2, “Sodium channel blocker compositions and the use thereof” (Euro-Celtique S.A., priority 1999, dated 2008).

For assay [1], the system named is Chung model of neuropathic rats. The assay is described as follows: Tactile allodynia in the Chung model of peripheral neuropathy. In kind it is in vivo, rat. The settings on record: given alone, FIG. 2.
Protocol: Male Sprague-Dawley rats weighing between 200-225 g were anesthetized with halothane (1-3% in a mixture of 70% air and 30% oxygen) and their body temperature controlled during anesthesia through use of a homeothermic blanket. A 2-cm dorsal midline incision was then made at the L5 and L6 level and the para-vertibral muscle groups retracted bilaterally. L5 and L6 spinal nerves were then be exposed, isolated, and tightly ligated with 6-0 silk suture. A sham operation was performed exposing the contralateral L5 and L6 spinal nerves as a negative control.
Tactile Allodynia: Rats were transferred to an elevated testing cage with a wire mesh floor and allowed to acclimate for five to ten minutes. A series of Semmes-Weinstein monofilaments were applied to the plantar surface of the hindpaw to determine the animal's withdrawal threshold. […] This procedure was repeated with subsequent lesser filaments until there was no response and the lightest filament that elicited a response was recorded. […] For each animal, three measurements were made at every time point to produce an average withdrawal threshold determination. Tests were performed prior to and at 1, 2, and 24 hrs post drug administration. Tactile allodynia and mechanical hyperalgesia tests were conducted concurrently.
Another assay relates to chronic pain. The following applies: clinical trials; 15-20% of patients treated with placebo showed effectiveness; cited from earlier work.

Structures are written as SMILES.

Consider `NC(=O)NN=Cc1ccc(Oc2ccc(F)cc2)cc1` [Co 102862, 4-(4′-fluoro-phenoxy)benzaldehyde semicarbazone], for which the “tactile antiallodynia effect (withdrawal threshold)” value in assay [1] (1.25 mg/kg p.o.) was “moderate antiallodynia effect”.

As for `NCC1(CC(=O)O)CCCCC1` [gabapentin, 1-(aminomethyl)cyclohexaneacetic acid], the “tactile antiallodynia effect (withdrawal threshold)” value in assay [1] (25 mg/kg s.c.) is “minimum or no effect”. The “patient population that showed effectiveness” value in the assay with chronic pain is given as “less than 50%”.
